In the assay the test system is Plasmodium falciparum. Nature of the assay: MMV: Compounds (1uM) were screened in a 72hr growth assay monitored by flow cytometry both in the presence and absence of supplemental isopentenyl pyrophosphate (IPP) 200uM. Compounds which fail to show anti-malarial activity when chemically rescued by IPP are therefore specific to the apicoplast. The values are expressed as the ratio of the corresponding activity with and without IPP, respectively. In kind it is functional, W2.
As to `COc1ccc(Nc2nc(N/N=C/c3ccc(O)cc3)nc(Nc3ccc([N+](=O)[O-])cc3)n2)cc1`, the Ratio is 1.812.

For the compound `Cc1sc(NC(=O)c2ccco2)c(C(c2cccnc2)N2CCC(Cc3ccccc3)CC2)c1C` (stereo not drawn), the Ratio turned out to be 1.123.

In the case of `O=C(NNc1cc(N2CCCC2)nc(N2CCCC2)n1)c1ccccc1`, the Ratio is given as 0.9508.

Turning to `COC(=O)c1ccc(Cl)c2c1C1C=CCC1C(c1cccc3ccccc13)N2` (stereo not drawn), the Ratio came out at 1.081.

For the compound `O=C(CCc1ccccc1)c1ccccc1OCC(O)CN1CCCCC1` (stereo not drawn), the Ratio was found to be 1.

`OC1=C2C(=Nc3ccccc3SC2c2ccccc2)c2ccccc21` (stereo not drawn): the Ratio is 1.213.

For the compound `COc1cc(C(=O)Nc2ccc(-c3nc4ccccc4[nH]3)cc2)cc(OC)c1OC`, the Ratio turned out to be 0.6522.

Take `COC(=O)c1ccc(C2C3=C(O)CC(c4ccc(F)cc4)CC3=Nc3ccccc3N2C(=O)c2ccccc2)cc1` (stereo not drawn): the Ratio is 0.9016.

Turning to `CCOc1ccc(CN2CCN(CC(O)COc3ccc(OCC(O)CN4CCN(Cc5ccc(OCC)cc5)CC4)cc3)CC2)cc1` (stereo not drawn), the Ratio is recorded as 0.9863.

For `CCCCNc1nc(NC(C)(C)C)nc(NC(C)(C)C)n1`, the Ratio came out at 1.02.

Consider `CC(=O)c1sc(NC(=O)Nc2ccc(C)cc2C)nc1C`, for which the Ratio was 0.843.

Take `Cn1c(C(=O)c2cccc3ccccc23)nc2ccccc21`: the Ratio was determined as 0.8689.

Turning to `O=C(Nc1ccc(-c2nc3ccccc3[nH]2)cc1)c1ccc(Cl)c(Cl)c1`, the Ratio came out at 0.9295.

With `OCCNc1nc(Nc2ccc(Cl)c(Cl)c2)nc2ccccc12`, the Ratio is 1.062.

As for `Nc1ccc(-c2nc3cc(Oc4ccc(Oc5ccc6[nH]c(-c7ccc(N)cc7)nc6c5)cc4)ccc3[nH]2)cc1`, the Ratio came to 1.143.

Consider `Cc1cc(N(C)C)nc(Nc2ccc(NC(=O)Nc3ccccc3)cc2)n1`, for which the Ratio worked out at 1.017.

Consider `COc1cc(C(=O)ON=C(N)Cc2cccc3ccccc23)cc(OC)c1OC`, for which the Ratio is given as 1.265.

With `Oc1c(C(Nc2ccccn2)c2cccc(Oc3ccccc3)c2)ccc2cccnc12` (stereo not drawn), the Ratio is on record as 0.7317.

Regarding `COc1cc(-c2nc(-c3ccccc3)c(-c3ccccc3)[nH]2)cc(OC)c1O`, the Ratio came to 1.031.

For `Cc1ccc(Nc2nc(N)c3ccccc3n2)cc1Cl`, the Ratio is listed as 0.9206.

Regarding `CCc1ccc(CNCC(O)c2ccccc2)cc1.Cl` (stereo not drawn), the Ratio stood at 1.061.

Regarding `Br.CCn1c2c(c(=N)c3c1CCC3)CCCC2`, the Ratio stood at 0.8374.

Consider `Cc1ccc2c(C)nc(Nc3nc(C)cc(-c4ccccc4)n3)nc2c1`, for which the Ratio came out at 0.8649.

In the case of `CCOc1ccc(Nc2ccnc3cc(Cl)ccc23)cc1`, the Ratio turned out to be 0.8831.

Regarding `CCCn1c(=N)c(C(=O)NC2CCCCC2)cc2c(=O)n3cccc(C)c3nc21`, the Ratio was determined as 0.8.

For `Nc1ccn([C@@H]2O[C@H](CO)[C@@H](O)[C@H]2O)c(=O)n1` [CYTIDINE], the Ratio turned out to be 0.6667.

With `O=C(Nc1cccc(C2=NCCN2)c1)Nc1cccc(C2=NCCN2)c1` [IMIDOCARB], the Ratio is reported as 1.

Take `CN(C)c1ccc(C(O)(c2ccc(N(C)C)cc2)c2ccc(N(C)C)cc2)cc1` [METHYLROSANILINE]: the Ratio stood at 1.127.
